Assay results reported in patent publication US5753715A, “2-disubstituted cyclohexenyl and cyclohexyl antimicrobial agents” (Ortho Pharmaceutical Corporation, priority 1995, dated 1998).
Values after ≈ are worked out from the molar mass of the structure shown.

Assays:
[1] = tested on: S. epi oc2603; assay: MIC, microdilution broth method (NCCLS); format: cell-based; set-up: unit not given here; conditions: cation supplemented Mueller Hinton broth, 35° C., 16-20 hours
Procedure: (§1) The in vitro antimicrobial spectrum of the compounds of the present invention were determined by the microdilution broth method following the test method from the National Committee for […] (NCCLS ). The method is described in the NCCLS Document M7-A2, Vol. 10, No.8 "Methods for Dilution Antimicrobial Susceptibility Test for Bacteria that Grow Aerobically--Second Edition".
(§2) In this method two fold serial dilutions of drug in cation supplemented Mueller Hinton broth are added to wells in microdilution trays. The test organisms are prepared by adjusting the turbidity of actively growing broth cultures so that the final concentration of test organism after it is added to the wells is approximately 5×10^4 colony forming units per well delivered by the Steers replicating device.
(§3) Following inoculation of the microdilution trays, the trays are incubated at 35° C. for 16-20 hours and then read. […] The amount of growth in the wells containing the test compound is compared with the amount of growth in the growth-control wells used in each tray.

[2] = tested on: C. albicans 10231; assay: MIC, microdilution broth method (NCCLS); format: cell-based; conditions: cation supplemented Mueller Hinton broth, 35° C., 16-20 hours; unit assumed
Procedure: as §1, §2, §3

[3] = tested on: Ps. aerug. oc27853; assay: MIC, microdilution broth method (NCCLS); format: cell-based; conditions: cation supplemented Mueller Hinton broth, 35° C., 16-20 hours; unit assumed
Procedure: as §1, §2, §3

[4] = tested on: E. faecalis oc3041; assay: MIC, microdilution broth method (NCCLS); format: cell-based; conditions: cation supplemented Mueller Hinton broth, 35° C., 16-20 hours; unit assumed
Procedure: as §1, §2, §3

[5] = tested on: E. coli oc2605; assay: MIC, microdilution broth method (NCCLS); format: cell-based; conditions: cation supplemented Mueller Hinton broth, 35° C., 16-20 hours; unit assumed
Procedure: as §1, §2, §3

[6] = tested on: MRSA oc2089; assay: MIC, microdilution broth method (NCCLS); format: cell-based; conditions: cation supplemented Mueller Hinton broth, 35° C., 16-20 hours; unit assumed
Procedure: as §1, §2, §3

[7] = tested on: C. tropicalis; assay: MIC, microdilution broth method (NCCLS); format: cell-based; conditions: cation supplemented Mueller Hinton broth, 35° C., 16-20 hours; unit assumed
Procedure: as §1, §2, §3

[8] = tested on: MRSA oc667; assay: MIC, microdilution broth method (NCCLS); format: cell-based; conditions: cation supplemented Mueller Hinton broth, 35° C., 16-20 hours; unit assumed
Procedure: as §1, §2, §3

[9] = tested on: E. faecalis ACTCC 29212; assay: MIC, microdilution broth method (NCCLS); format: cell-based; conditions: cation supplemented Mueller Hinton broth, 35° C., 16-20 hours; unit assumed
Procedure: as §1, §2, §3

[10] = tested on: S. aureus ATCC 29213; assay: MIC, microdilution broth method (NCCLS); format: cell-based; conditions: cation supplemented Mueller Hinton broth, 35° C., 16-20 hours; unit assumed
Procedure: as §1, §2, §3

[11] = tested on: A. niger 10578; assay: MIC, microdilution broth method (NCCLS); format: cell-based; conditions: cation supplemented Mueller Hinton broth, 35° C., 16-20 hours; unit assumed
Procedure: as §1, §2, §3

[12] = tested on: K. pneum. oc1943; assay: MIC, microdilution broth method (NCCLS); format: cell-based; conditions: cation supplemented Mueller Hinton broth, 35° C., 16-20 hours; unit assumed
Procedure: as §1, §2, §3

[13] = tested on: E. coli oc2530; assay: MIC, microdilution broth method (NCCLS); format: cell-based; conditions: cation supplemented Mueller Hinton broth, 35° C., 16-20 hours; unit assumed
Procedure: as §1, §2, §3

[14] = tested on: Ps. aerug. oc161; assay: MIC, microdilution broth method (NCCLS); format: cell-based; conditions: cation supplemented Mueller Hinton broth, 35° C., 16-20 hours; unit assumed
Procedure: as §1, §2, §3

[15] = tested on: E. faecium oc2993; assay: MIC, microdilution broth method (NCCLS); format: cell-based; conditions: cation supplemented Mueller Hinton broth, 35° C., 16-20 hours; unit assumed
Procedure: as §1, §2, §3

[16] = target: T1, Kinase A and SpoOF (Bacillus subtilis, UniProt P16497); assay: Autophosphorylation of Kinase A and Transphosphorylation of SPoOF Assay; format: biochemical; conditions: inhibition of Kinase A autophosphorylation / SpoOF transphosphorylation, [32P]ATP, gel, phosphoimager
T1 sequence (P16497 1-606): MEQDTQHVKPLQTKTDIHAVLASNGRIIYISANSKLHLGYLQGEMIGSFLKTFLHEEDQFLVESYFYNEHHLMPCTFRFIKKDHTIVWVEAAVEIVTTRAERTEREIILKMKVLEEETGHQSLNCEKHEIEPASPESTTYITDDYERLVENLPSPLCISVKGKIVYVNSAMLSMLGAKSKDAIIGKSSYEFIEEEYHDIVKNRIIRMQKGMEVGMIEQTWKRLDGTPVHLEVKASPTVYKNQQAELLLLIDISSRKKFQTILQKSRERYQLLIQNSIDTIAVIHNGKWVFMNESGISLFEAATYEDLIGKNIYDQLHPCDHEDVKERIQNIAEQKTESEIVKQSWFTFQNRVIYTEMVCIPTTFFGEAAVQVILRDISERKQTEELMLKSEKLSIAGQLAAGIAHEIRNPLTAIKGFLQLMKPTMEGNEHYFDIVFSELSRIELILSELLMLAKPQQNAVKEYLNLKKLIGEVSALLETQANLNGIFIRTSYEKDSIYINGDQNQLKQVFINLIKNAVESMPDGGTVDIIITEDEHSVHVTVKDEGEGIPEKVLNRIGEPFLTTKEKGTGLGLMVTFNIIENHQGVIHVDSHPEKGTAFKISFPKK

Row | SMILES | MIC S. epi oc2603 [1] | MIC C. albicans 10231 [2] [µg/mL] | MIC Ps. aerug. oc27853 [3] [µg/mL] | MIC E. faecalis oc3041 [4] [µg/mL] | MIC E. coli oc2605 [5] [µg/mL] | MIC MRSA oc2089 [6] [µg/mL] | MIC C. tropicalis [7] [µg/mL] | MIC MRSA oc667 [8] [µg/mL] | MIC E. faecalis ACTCC 29212 [9] [µg/mL] | MIC S. aureus ATCC 29213 [10] [µg/mL] | MIC A. niger 10578 [11] [µg/mL] | MIC K. pneum. oc1943 [12] [µg/mL] | MIC E. coli oc2530 [13] [µg/mL] | MIC Ps. aerug. oc161 [14] [µg/mL] | MIC E. faecium oc2993 [15] [µg/mL] | IC50 [16] [mM] | IC min [16] [mM]
1 | COc1ccc(CC2(CCOc3ccc(CCCNC(=N)N)cc3)C=CCCC2)cc1 (stereo not shown) [Compound 53] | 8 | 4 (≈ 9.49 µM) | > 128 | 8 (≈ 19 µM) | > 64 | 4 (≈ 9.49 µM) | 2 (≈ 4.74 µM) | 8 (≈ 19 µM) | 4 (≈ 9.49 µM) | 4 (≈ 9.49 µM) | 8 (≈ 19 µM) | > 128 | 16 (≈ 38 µM) | > 128 | 8 (≈ 19 µM) | 113 | 
2 | NCCCc1cnc(NCCC2(Cc3ccccc3)C=CCCC2)nc1 (stereo not shown) [Compound 49] | 16 | 32 (≈ 91.3 µM) | 128 (≈ 365 µM) | 32 (≈ 91.3 µM) | 128 (≈ 365 µM) | 32 (≈ 91.3 µM) | 16 (≈ 45.6 µM) | 32 (≈ 91.3 µM) | 32 (≈ 91.3 µM) | 64 (≈ 183 µM) | 16 (≈ 45.6 µM) | 128 (≈ 365 µM) | 16 (≈ 45.6 µM) | 128 (≈ 365 µM) | 32 (≈ 91.3 µM) | 162 | 
3 | Clc1ccc(CC2(CCOc3ccc(CCNCCN4CCCC4)cc3)C=CCCC2)cc1 (stereo not shown) [Compound 34] | 4 | 8 (≈ 17.1 µM) | > 64 | 4 (≈ 8.56 µM) | 8 (≈ 17.1 µM) | 4 (≈ 8.56 µM) | ≤ 4 | 4 (≈ 8.56 µM) | 4 (≈ 8.56 µM) | 4 (≈ 8.56 µM) | 8 (≈ 17.1 µM) | 32 (≈ 68.5 µM) | 4 (≈ 8.56 µM) | > 64 | 4 (≈ 8.56 µM) | 295 | 125
